Results from PubChem BioAssay (NCI).
Values joined by “and” are separate entries in the source; they are usually repeats but may differ in a detail not shown here. Equal entries are not always repeated.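 In this assay, cells in 96-well plates receive the compound at five concentrations for 48 hours. Endpoints are linearly interpolated between the surrounding concentrations. The concentration for 50% growth inhibition is given as GI50. At the TGI there is no net growth.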

What was measured:
Experiment in all cases: growth of human tumour cells (NCI), 48 h
T-47D breast = system: T-47D breast
BT-549 breast = system: BT-549 breast
MDA-MB-435 = system: MDA-MB-435
MCF7 breast = system: MCF7 breast
MDA-MB-231 breast = system: MDA-MB-231 breast
SNB-19 CNS = system: SNB-19 CNS

## COc1cc2c(=O)n(CCN)c3c4cc5c(cc4ccc3c2cc1OC)OCO5
T-47D breast
  GI50: 0.508 µM
  TGI: 16.8 µM
BT-549 breast
  GI50: 1.06 µM
  TGI: 2.7 µM
MDA-MB-435
  GI50: 0.894 µM
  TGI: 2.29 µM
MCF7 breast
  GI50: 0.175 µM
  TGI: 1.53 µM
MDA-MB-231 breast
  GI50: 1.23 µM
  TGI: 2.66 µM
SNB-19 CNS
  GI50: 0.414 µM
  TGI: 1.97 µM

## CC(CCC(=O)O)C(=O)O (stereo not drawn)
T-47D breast
  TGI: > 100 µM
BT-549 breast
  TGI: > 100 µM
MDA-MB-435
  TGI: > 100 µM
MCF7 breast
  TGI: > 100 µM
MDA-MB-231 breast
  TGI: > 100 µM
SNB-19 CNS
  TGI: > 100 µM

## Nc1ccc(C(=O)CC(N)C(=O)O)cc1O (stereo not drawn)
T-47D breast
  TGI: > 100 µM
BT-549 breast
  TGI: > 100 µM
MDA-MB-435
  TGI: > 100 µM
MCF7 breast
  TGI: > 100 µM
MDA-MB-231 breast
  TGI: > 100 µM
SNB-19 CNS
  TGI: > 100 µM

## CCOc1cccc(/C=N/NC(=O)C(=O)Nc2cccc(C(F)(F)F)c2)c1O
T-47D breast
  GI50: 2.67 µM
  TGI: 36.1 µM
BT-549 breast
  GI50: 5.36 µM
  TGI: > 100 µM
MDA-MB-435
  GI50: 4.16 µM
  TGI: > 100 µM
MCF7 breast
  GI50: 2.14 µM
  TGI: > 100 µM
MDA-MB-231 breast
  GI50: 1.43 µM
  TGI: > 100 µM
SNB-19 CNS
  GI50: 2.48 µM
  TGI: > 100 µM

## CCCOc1ccc2nc(NC(=O)OC)[nH]c2c1
T-47D breast
  GI50: > 100 µM
  TGI: > 100 µM
BT-549 breast
  GI50: 1.06 µM
  TGI: > 100 µM
MDA-MB-435
  GI50: 0.0284 µM
  TGI: 0.11 µM
MCF7 breast
  GI50: 0.239 µM
  TGI: > 100 µM
MDA-MB-231 breast
  GI50: 0.399 µM
  TGI: > 100 µM
SNB-19 CNS
  GI50: 0.384 µM
  TGI: > 100 µM

## COc1ccc(Cn2cc3c(c2)-c2oncc2CC3)cc1
T-47D breast
  GI50: 5.09 µM
  TGI: > 100 µM
BT-549 breast
  GI50: 4.79 µM
  TGI: 66.1 µM
MDA-MB-435
  GI50: 0.635 µM
  TGI: 5.75 µM
MCF7 breast
  GI50: 3.07 µM
  TGI: > 100 µM
MDA-MB-231 breast
  GI50: 9.47 µM
  TGI: > 100 µM
SNB-19 CNS
  GI50: 9.05 µM
  TGI: > 100 µM

## COc1ccc(-c2oc3c(OC)c(OC)c(OC)c(OC)c3c(=O)c2OC)cc1OC
T-47D breast
  TGI: > 100 µM
BT-549 breast
  TGI: > 100 µM
MDA-MB-435
  TGI: 98.7 µM
MCF7 breast
  TGI: > 100 µM
MDA-MB-231 breast
  TGI: > 100 µM
SNB-19 CNS
  TGI: > 100 µM

## C=C1C(=O)O[C@H]2[C@H]1CC/C(COC(=O)c1cc3cc(Cl)ccc3[nH]1)=C\CC[C@@]1(C)O[C@@H]21
BT-549 breast
  GI50: 1.31 µM
  TGI: 3.2 µM
MDA-MB-435
  GI50: 1.24 µM
  TGI: 2.51 µM
MCF7 breast
  GI50: 0.86 µM
  TGI: 2.32 µM
MDA-MB-231 breast
  GI50: 1.32 µM
  TGI: 2.85 µM
SNB-19 CNS
  GI50: 2.91 µM
  TGI: 10.1 µM

## Cc1c(C(=O)NCCN2CCOCC2)cn2ncnc(Oc3ccc(NC(=O)Nc4ccc(Cl)c(C(F)(F)F)c4)cc3)c12
T-47D breast
  GI50: 2.02 µM
  TGI: 6.38 µM
BT-549 breast
  GI50: 1.66 µM
  TGI: 3.21 µM
MDA-MB-435
  GI50: 1.29 µM
  TGI: 2.75 µM
MDA-MB-231 breast
  GI50: 1.31 µM
  TGI: 2.91 µM

## CC1C(=O)OCC2=CCN3CCC(OC(=O)C(C)C1(C)O)C23 (stereo not drawn)
T-47D breast
  TGI: > 100 µM
BT-549 breast
  TGI: > 100 µM
MDA-MB-435
  TGI: > 100 µM
MDA-MB-231 breast
  TGI: > 100 µM
SNB-19 CNS
  TGI: > 100 µM

## COc1cc(/C=C2\C(=O)Nc3ccc(N(C)C)cc32)cc(OC)c1OC
T-47D breast
  GI50: 2.49 µM
  TGI: > 31.3 µM
BT-549 breast
  GI50: 2.49 µM
  TGI: 14.5 µM
MCF7 breast
  GI50: 1.51 µM
  TGI: > 100 µM
MDA-MB-231 breast
  GI50: 4.26 µM
  TGI: > 63.8 µM
SNB-19 CNS
  GI50: 3.67 µM
  TGI: > 100 µM

## Nc1ccccc1C#C/C=C\C#Cc1ccccc1
T-47D breast
  GI50: 17.7 µM
  TGI: 38.3 µM
BT-549 breast
  GI50: 3.29 µM
  TGI: 16.3 µM
MDA-MB-435
  GI50: 2.64 µM
  TGI: 6.31 µM
MDA-MB-231 breast
  GI50: 11.6 µM
  TGI: 26.8 µM
SNB-19 CNS
  GI50: 29.7 µM
  TGI: > 100 µM

## CC[PH+](CC)CC.O=COC1OC([S-])C(OC=O)C(OC=O)C1OC=O.[Au+] (stereo not drawn)
T-47D breast
  GI50: 1.96 µM
  TGI: 6.47 µM
BT-549 breast
  GI50: 1.25 µM
  TGI: 2.54 µM
MDA-MB-435
  GI50: 1.43 µM
  TGI: 2.97 µM
MDA-MB-231 breast
  GI50: 1.46 µM
  TGI: 2.82 µM
SNB-19 CNS
  GI50: 1.34 µM
  TGI: 2.61 µM

## Cc1cc(S(=O)(=O)NC#N)c(S/C(=N\Nc2ccc([N+](=O)[O-])cc2)c2ccc(Cl)cc2)cc1Cl
T-47D breast
  GI50: 3.89 µM
  TGI: 42.6 µM
BT-549 breast
  GI50: 20.3 µM
  TGI: 73.4 µM
MDA-MB-435
  GI50: 64.3 µM
  TGI: > 100 µM
MCF7 breast
  GI50: 15.9 µM
  TGI: 42.6 µM
SNB-19 CNS
  GI50: 25.2 µM
  TGI: > 100 µM

## COC(=O)c1nc(Cl)nc(Cl)c1Cl
T-47D breast
  TGI: 54.2 µM
MDA-MB-435
  TGI: 29.3 µM
MCF7 breast
  TGI: 55.1 µM
MDA-MB-231 breast
  TGI: 42.9 µM
SNB-19 CNS
  TGI: > 100 µM

## COc1ccc(Cn2c3c(cc(OS(=O)(=O)C(F)(F)F)c2=O)Cc2ccccc2-3)cc1
T-47D breast
  GI50: 16.6 µM
  TGI: 50 µM and > 100 µM
BT-549 breast
  GI50: 19.9 µM
  TGI: 50 µM and > 100 µM
MDA-MB-435
  GI50: 29.4 µM
  TGI: 50 µM and > 100 µM
MDA-MB-231 breast
  GI50: 5.26 µM
  TGI: > 100 µM
SNB-19 CNS
  GI50: 23.7 µM
  TGI: 50 µM and > 100 µM

## NC(N)=NCCC1OC(=O)C2=C1c1c(O)ccc3nccc(c13)O2 (stereo not drawn)
T-47D breast
  GI50: 95.1 µM
  TGI: > 100 µM
MDA-MB-435
  GI50: > 100 µM
  TGI: > 100 µM
MCF7 breast
  GI50: > 100 µM
  TGI: > 100 µM
MDA-MB-231 breast
  GI50: > 100 µM
  TGI: > 100 µM
SNB-19 CNS
  GI50: 50.5 µM
  TGI: > 100 µM

## CCN(CC)C(=S)SC
T-47D breast
  TGI: > 100 µM
BT-549 breast
  TGI: > 100 µM
MCF7 breast
  TGI: > 100 µM
MDA-MB-231 breast
  TGI: > 100 µM
SNB-19 CNS
  TGI: > 100 µM

## O=C1C(c2ccccc2)=[N+]([O-])c2ccccc21
T-47D breast
  TGI: 7.25 µM
MDA-MB-435
  TGI: 11.2 µM
MCF7 breast
  TGI: 4.88 µM
MDA-MB-231 breast
  TGI: 25.4 µM
SNB-19 CNS
  TGI: 37.5 µM

## NC(=O)c1cc2c3ccccc3ccn2c1-c1ccccc1
BT-549 breast
  GI50: 0.485 µM
  TGI: 13.1 µM
MDA-MB-435
  TGI: > 100 µM
MCF7 breast
  GI50: 0.0597 µM
  TGI: 13.5 µM
MDA-MB-231 breast
  GI50: 0.662 µM
  TGI: 17.5 µM
SNB-19 CNS
  GI50: 0.0727 µM
  TGI: 22.1 µM
